In patent US10010545B1, “Antibiotic compositions and methods of use” (University of South Florida, priority 2013, dated 2018):
In brackets after ≈: the same amount, converted by molar mass.

Experiments:
Pseudomonas aeruginosa = experiment: Growth testing against ESKAPE pathogens: Pseudomonas aeruginosa; assay type: cell-based; parameters: key: Growth; X: No Growth
Procedure: (§1) Six analogs (FIG. 2) of the ciprofloxacin-N thiolated β-lactam were successfully synthesized. All these compounds were then tested against ESKAPE pathogens for bioactivity. The ESKAPE pathogens are a collection of six deadly superbugs, Enterococcus faecium, Staphylococcus aureus, Klebsiella pneumoniae, Acinetobacter baumannii, Pseudomonas aeruginosa, and Enterobacter species. […] G denotes growth and X denotes no growth in the tables.

Acinetobacter baumannii = experiment: Growth testing against ESKAPE pathogens: Acinetobacter baumannii; assay type: cell-based; parameters: key: Growth; X: No Growth
Procedure: as §1

Enterococcus faecium = experiment: Growth testing against ESKAPE pathogens: Enterococcus faecium; assay type: cell-based; parameters: key: Growth; X: No Growth
Procedure: as §1

Staphylococcus aureus = experiment: Growth testing against ESKAPE pathogens: Staphylococcus aureus; assay type: cell-based; parameters: key to Activity against Staphylococcus aureus (growth observed): Growth; X: No Growth; details: for MIC: against S. aureus
Procedure: as §1

MRSA = experiment: Growth inhibition against MRSA; assay type: cell-based; details: at 1 μg/ml against MRSA
Procedure: as §1
Synthesis of dual drugs for the antibacterial purposes is a huge arena of research and for the first time this was done with the N-thiolated β-lactams. Though both N-acyl ciprofloxacins and N-thiolated β-lactams have been independently studied, the attempt to combine them via a cleavable covalent bond was never done. This study has elaborated on the synthesis of six such analogs.

Klebesiella pneumonia = experiment: Growth testing against ESKAPE pathogens: Klebesiella pneumonia; assay type: cell-based, Klebsiella pneumoniae; parameters: key: Growth; X: No Growth
Procedure: as §1

CCC(C)SN1C(=O)C(OC(=O)c2cn(C3CC3)c3cc(N4CCN(C(C)=O)CC4)c(F)cc3c2=O)C1c1ccccc1Cl (centres unmarked) [Lactam 125]
Activity against Pseudomonas aeruginosa (growth observed) (Pseudomonas aeruginosa; 1 μg/ml): G | Activity against Pseudomonas aeruginosa (growth observed) (Pseudomonas aeruginosa; 2 μg/ml): G | Activity against Pseudomonas aeruginosa (growth observed) (Pseudomonas aeruginosa; 3 μg/ml): G | Activity against Pseudomonas aeruginosa (growth observed) (Pseudomonas aeruginosa; 4 μg/ml): G | Activity against Pseudomonas aeruginosa (growth observed) (Pseudomonas aeruginosa; 5 μg/ml): G | Activity against Pseudomonas aeruginosa (growth observed) (Pseudomonas aeruginosa; 6 μg/ml): G | Activity against Pseudomonas aeruginosa (growth observed) (Pseudomonas aeruginosa; 7 μg/ml): G | Activity against Pseudomonas aeruginosa (growth observed) (Pseudomonas aeruginosa; 8 μg/ml): G | Activity against Pseudomonas aeruginosa (growth observed) (Pseudomonas aeruginosa; 9 μg/ml): G | Activity against Pseudomonas aeruginosa (growth observed) (Pseudomonas aeruginosa; 10 μg/ml): G | Activity against Pseudomonas aeruginosa (growth observed) (Pseudomonas aeruginosa; 25 μg/ml): G | Activity against Acinetobacter baumannii (growth observed) (Acinetobacter baumannii; 1 μg/ml): G | Activity against Acinetobacter baumannii (growth observed) (Acinetobacter baumannii; 2 μg/ml): G | Activity against Acinetobacter baumannii (growth observed) (Acinetobacter baumannii; 3 μg/ml): G | Activity against Acinetobacter baumannii (growth observed) (Acinetobacter baumannii; 4 μg/ml): G | Activity against Acinetobacter baumannii (growth observed) (Acinetobacter baumannii; 5 μg/ml): G | Activity against Acinetobacter baumannii (growth observed) (Acinetobacter baumannii; 6 μg/ml): G | Activity against Acinetobacter baumannii (growth observed) (Acinetobacter baumannii; 7 μg/ml): G | Activity against Acinetobacter baumannii (growth observed) (Acinetobacter baumannii; 8 μg/ml): G | Activity against Acinetobacter baumannii (growth observed) (Acinetobacter baumannii; 9 μg/ml): G | Activity against Acinetobacter baumannii (growth observed) (Acinetobacter baumannii; 10 μg/ml): G | Activity against Acinetobacter baumannii (growth observed) (Acinetobacter baumannii; 25 μg/ml): G | Activity against Enterococcus faecium (growth observed) (Enterococcus faecium; 1 μg/ml): G | Activity against Enterococcus faecium (growth observed) (Enterococcus faecium; 2 μg/ml): G | Activity against Enterococcus faecium (growth observed) (Enterococcus faecium; 3 μg/ml): G | Activity against Enterococcus faecium (growth observed) (Enterococcus faecium; 4 μg/ml): G | Activity against Enterococcus faecium (growth observed) (Enterococcus faecium; 5 μg/ml): G | Activity against Enterococcus faecium (growth observed) (Enterococcus faecium; 6 μg/ml): G | Activity against Enterococcus faecium (growth observed) (Enterococcus faecium; 7 μg/ml): G | Activity against Enterococcus faecium (growth observed) (Enterococcus faecium; 8 μg/ml): G | Activity against Enterococcus faecium (growth observed) (Enterococcus faecium; 9 μg/ml): G | Activity against Enterococcus faecium (growth observed) (Enterococcus faecium; 10 μg/ml): G | Activity against Enterococcus faecium (growth observed) (Enterococcus faecium; 25 μg/ml): G | Activity against Staphylococcus aureus (growth observed) (Staphylococcus aureus; 1 μg/ml): X | Activity against Staphylococcus aureus (growth observed) (Staphylococcus aureus; 2 μg/ml): X | Activity against Staphylococcus aureus (growth observed) (Staphylococcus aureus; 3 μg/ml): X | Activity against Staphylococcus aureus (growth observed) (Staphylococcus aureus; 4 μg/ml): X | Activity against Staphylococcus aureus (growth observed) (Staphylococcus aureus; 5 μg/ml): X | Activity against Staphylococcus aureus (growth observed) (Staphylococcus aureus; 6 μg/ml): X | Activity against Staphylococcus aureus (growth observed) (Staphylococcus aureus; 7 μg/ml): X | Activity against Staphylococcus aureus (growth observed) (Staphylococcus aureus; 8 μg/ml): X | Activity against Staphylococcus aureus (growth observed) (Staphylococcus aureus; 9 μg/ml): X | Activity against Staphylococcus aureus (growth observed) (Staphylococcus aureus; 10 μg/ml): X | Activity against Staphylococcus aureus (growth observed) (Staphylococcus aureus; 25 μg/ml): X | MIC (Staphylococcus aureus): 1 µg/mL (≈ 1.56 µM) | growth inhibition (MRSA): complete growth inhibition | Activity against Klebesiella pneumonia (growth observed) (Klebesiella pneumonia; 1 μg/ml): G | Activity against Klebesiella pneumonia (growth observed) (Klebesiella pneumonia; 2 μg/ml): G | Activity against Klebesiella pneumonia (growth observed) (Klebesiella pneumonia; 3 μg/ml): G | Activity against Klebesiella pneumonia (growth observed) (Klebesiella pneumonia; 4 μg/ml): G | Activity against Klebesiella pneumonia (growth observed) (Klebesiella pneumonia; 5 μg/ml): G | Activity against Klebesiella pneumonia (growth observed) (Klebesiella pneumonia; 6 μg/ml): G | Activity against Klebesiella pneumonia (growth observed) (Klebesiella pneumonia; 7 μg/ml): G | Activity against Klebesiella pneumonia (growth observed) (Klebesiella pneumonia; 8 μg/ml): G | Activity against Klebesiella pneumonia (growth observed) (Klebesiella pneumonia; 9 μg/ml): G | Activity against Klebesiella pneumonia (growth observed) (Klebesiella pneumonia; 10 μg/ml): G | Activity against Klebesiella pneumonia (growth observed) (Klebesiella pneumonia; 25 μg/ml): G

CCCCCCC(=O)N1CCN(c2cc3c(cc2F)c(=O)c(C(=O)OC2C(=O)N(SC(C)CC)C2c2ccccc2Cl)cn3C2CC2)CC1 (centres unmarked) [Lactam 130]
Activity against Pseudomonas aeruginosa (growth observed) (Pseudomonas aeruginosa; 1 μg/ml): G | Activity against Pseudomonas aeruginosa (growth observed) (Pseudomonas aeruginosa; 2 μg/ml): G | Activity against Pseudomonas aeruginosa (growth observed) (Pseudomonas aeruginosa; 3 μg/ml): G | Activity against Pseudomonas aeruginosa (growth observed) (Pseudomonas aeruginosa; 4 μg/ml): G | Activity against Pseudomonas aeruginosa (growth observed) (Pseudomonas aeruginosa; 5 μg/ml): G | Activity against Pseudomonas aeruginosa (growth observed) (Pseudomonas aeruginosa; 6 μg/ml): G | Activity against Pseudomonas aeruginosa (growth observed) (Pseudomonas aeruginosa; 7 μg/ml): G | Activity against Pseudomonas aeruginosa (growth observed) (Pseudomonas aeruginosa; 8 μg/ml): G | Activity against Pseudomonas aeruginosa (growth observed) (Pseudomonas aeruginosa; 9 μg/ml): G | Activity against Pseudomonas aeruginosa (growth observed) (Pseudomonas aeruginosa; 10 μg/ml): G | Activity against Pseudomonas aeruginosa (growth observed) (Pseudomonas aeruginosa; 25 μg/ml): G | Activity against Acinetobacter baumannii (growth observed) (Acinetobacter baumannii; 1 μg/ml): G | Activity against Acinetobacter baumannii (growth observed) (Acinetobacter baumannii; 2 μg/ml): G | Activity against Acinetobacter baumannii (growth observed) (Acinetobacter baumannii; 3 μg/ml): G | Activity against Acinetobacter baumannii (growth observed) (Acinetobacter baumannii; 4 μg/ml): G | Activity against Acinetobacter baumannii (growth observed) (Acinetobacter baumannii; 5 μg/ml): G | Activity against Acinetobacter baumannii (growth observed) (Acinetobacter baumannii; 6 μg/ml): G | Activity against Acinetobacter baumannii (growth observed) (Acinetobacter baumannii; 7 μg/ml): G | Activity against Acinetobacter baumannii (growth observed) (Acinetobacter baumannii; 8 μg/ml): G | Activity against Acinetobacter baumannii (growth observed) (Acinetobacter baumannii; 9 μg/ml): G | Activity against Acinetobacter baumannii (growth observed) (Acinetobacter baumannii; 10 μg/ml): G | Activity against Acinetobacter baumannii (growth observed) (Acinetobacter baumannii; 25 μg/ml): G | Activity against Enterococcus faecium (growth observed) (Enterococcus faecium; 1 μg/ml): G | Activity against Enterococcus faecium (growth observed) (Enterococcus faecium; 2 μg/ml): G | Activity against Enterococcus faecium (growth observed) (Enterococcus faecium; 3 μg/ml): G | Activity against Enterococcus faecium (growth observed) (Enterococcus faecium; 4 μg/ml): G | Activity against Enterococcus faecium (growth observed) (Enterococcus faecium; 5 μg/ml): G | Activity against Enterococcus faecium (growth observed) (Enterococcus faecium; 6 μg/ml): G | Activity against Enterococcus faecium (growth observed) (Enterococcus faecium; 7 μg/ml): G | Activity against Enterococcus faecium (growth observed) (Enterococcus faecium; 8 μg/ml): G | Activity against Enterococcus faecium (growth observed) (Enterococcus faecium; 9 μg/ml): G | Activity against Enterococcus faecium (growth observed) (Enterococcus faecium; 10 μg/ml): G | Activity against Enterococcus faecium (growth observed) (Enterococcus faecium; 25 μg/ml): G | Activity against Staphylococcus aureus (growth observed) (Staphylococcus aureus; 1 μg/ml): G | Activity against Staphylococcus aureus (growth observed) (Staphylococcus aureus; 2 μg/ml): G | Activity against Staphylococcus aureus (growth observed) (Staphylococcus aureus; 3 μg/ml): G | Activity against Staphylococcus aureus (growth observed) (Staphylococcus aureus; 4 μg/ml): G | Activity against Staphylococcus aureus (growth observed) (Staphylococcus aureus; 5 μg/ml): G | Activity against Staphylococcus aureus (growth observed) (Staphylococcus aureus; 6 μg/ml): G | Activity against Staphylococcus aureus (growth observed) (Staphylococcus aureus; 7 μg/ml): G | Activity against Staphylococcus aureus (growth observed) (Staphylococcus aureus; 8 μg/ml): G | Activity against Staphylococcus aureus (growth observed) (Staphylococcus aureus; 9 μg/ml): G | Activity against Staphylococcus aureus (growth observed) (Staphylococcus aureus; 10 μg/ml): X | Activity against Staphylococcus aureus (growth observed) (Staphylococcus aureus; 25 μg/ml): X | MIC (Staphylococcus aureus): 10 µg/mL (≈ 14.1 µM) | Activity against Klebesiella pneumonia (growth observed) (Klebesiella pneumonia; 1 μg/ml): G | Activity against Klebesiella pneumonia (growth observed) (Klebesiella pneumonia; 2 μg/ml): G | Activity against Klebesiella pneumonia (growth observed) (Klebesiella pneumonia; 3 μg/ml): G | Activity against Klebesiella pneumonia (growth observed) (Klebesiella pneumonia; 4 μg/ml): G | Activity against Klebesiella pneumonia (growth observed) (Klebesiella pneumonia; 5 μg/ml): G | Activity against Klebesiella pneumonia (growth observed) (Klebesiella pneumonia; 6 μg/ml): G | Activity against Klebesiella pneumonia (growth observed) (Klebesiella pneumonia; 7 μg/ml): G | Activity against Klebesiella pneumonia (growth observed) (Klebesiella pneumonia; 8 μg/ml): G | Activity against Klebesiella pneumonia (growth observed) (Klebesiella pneumonia; 9 μg/ml): G | Activity against Klebesiella pneumonia (growth observed) (Klebesiella pneumonia; 10 μg/ml): G | Activity against Klebesiella pneumonia (growth observed) (Klebesiella pneumonia; 25 μg/ml): G
